# Target: BACE1 (Homo sapiens (Human), UniProt P56817)
# Assay: Activity assay: inhibitory activity against the enzyme BACE1
# Assay type: biochemical
# Settings: 10 doses, 3-fold serial dilution starting from 10 μmol/L, singlet
# Protocol: The activity assay for the compound of each example was carried out in this experimental example, and the detailed test method was as follows:
# 1. The test compound was formulated as […] solution in dimethylsulfoxide;
# 2. Starting from 10 μmol/L, by 3-fold serial dilution, the inhibitory activity of each compound against the enzyme was tested in singlet state at 10 doses;
# 3. IC50 values of test compounds were finally obtained.
# Chain of BACE1 (P56817 46-501): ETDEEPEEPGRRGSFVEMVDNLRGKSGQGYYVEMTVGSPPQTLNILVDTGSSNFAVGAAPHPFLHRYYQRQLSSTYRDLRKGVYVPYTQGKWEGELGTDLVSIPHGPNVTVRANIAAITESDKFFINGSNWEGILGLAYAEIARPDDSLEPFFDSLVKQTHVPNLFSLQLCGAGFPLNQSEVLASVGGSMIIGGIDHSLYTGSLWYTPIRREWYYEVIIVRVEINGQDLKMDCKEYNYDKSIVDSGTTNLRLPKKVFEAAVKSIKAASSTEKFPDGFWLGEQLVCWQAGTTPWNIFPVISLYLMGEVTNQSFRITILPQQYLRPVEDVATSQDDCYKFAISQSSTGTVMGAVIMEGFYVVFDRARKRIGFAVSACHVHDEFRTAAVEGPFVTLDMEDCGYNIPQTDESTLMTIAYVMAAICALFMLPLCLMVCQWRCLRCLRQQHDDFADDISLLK
row,SMILES,IC50
1,"C[C@H]1C[C@@]2(F)CSC(N)=N[C@@]2(c2cc(N)ccc2F)CO1 [Example 7, (4aS,6S,8aS)-8a-(5-amino-2-fluorophenyl)-4a-fluoro-6-methyl-4,4a,5,6,8,8a-hexahydropyrano[3,4-d][1,3]thiazin-2-amine]",5870 nM
2,"Cc1cnc(C(=O)Nc2cccc([C@]34CO[C@@H](C)C[C@@]3(F)CSC(N)=N4)c2)cn1 [Example 15, N-(3-((4aS,6S,8aS)-2-amino-4a-fluoro-6-methyl-4,4a,5,6,8,8a-hexahydropyrano[3,4-d][1,3]thiazin-8a-yl)phenyl)-5-methylpyrazin-2-carboxamide]",225 nM
3,"C[C@H]1C[C@@]2(F)CSC(N)=N[C@@]2(c2cc(NC(=O)c3ccc(Cl)cn3)ccc2F)CO1 [Example 11, N-(3-((4aS,6S,8aS)-2-amino-4a-fluoro-6-methyl-4,4a,5,6,8,8a-hexahydropyrano[3,4-d][1,3]thiazin-8a-yl)-4-fluorophenyl)-5-chloropicolinamide]",172 nM

# The next molecules have a lower IC50 than those just listed; values first:
row,IC50,SMILES
1,150 nM,COc1cnc(C(=O)Nc2ccc(F)c([C@]34CO[C@@H](C)C[C@@]3(F)CSC(N)=N4)c2)cn1 [Example 12]
2,130 nM,"COc1cnc(C(=O)Nc2cccc([C@]34CO[C@@H](C)C[C@@]3(F)CSC(N)=N4)c2)cn1 [Example 14, N-(3-((4aS,6S,8aS)-2-amino-4a-fluoro-6-methyl-4,4a,5,6,8,8a-hexahydropyrano[3,4-d][1,3]thiazin-8a-yl)phenyl)-5-methoxypyrazin-2-carboxamide]"
